Tested on: injured carotid arteries
Test: Effect on intimal thickening in injured carotid arteries (balloon catheter injury, morphometry)
Format: in vivo, male Sprague-Dawley (SD) rats
Conditions: for Intima Percent (±S.E.): mean ± standard error, untreated injured control 46.06 ± 16.36
Experimental: The effect of N-(4-trifluoromethylphenyl)-5-methylisoxazole-carboxamide (compound I) on hyperproliferative vascular disease was established in an in vivo standard pharmacological test procedure that emulates the hyperproliferative effects observed in mammals that are undergoing intimal smooth muscle proliferation and are therefore developing restenosis. Cyclosporin A was also evaluated in these test procedure for the purpose of comparison.
Compound 1 was also evaluated in an in vivo standard pharmacological test procedure that emulates the vascular injury suffered and restenosis that develops following percutaneous transluminal coronary angioplasty in humans.
Intimal smooth muscle proliferation was produced by balloon catheter injury to the left carotid artery of groups of 6, male Sprague-Dawley (SD) rats. […] A balloon catheter (2 French Fogarty, Edwards Laboratories, Santa Anna, Calif.) was passed through the external carotid artery into the aorta. The balloon was then inflated with an amount of water sufficient to distend the common carotid artery and was then pulled back to the external carotid artery. The inflation and pull back were repeated three times. This procedure leads to complete denudation of the endothelium throughout the common carotid artery, and also some injury typically occurs to the medial smooth muscle cells.
During a 17-days period (3 days before operation to 13 days after operation), these rats were divided into 2 groups of 6 animals and treated daily with compound 1 (20 mg/kg/day, intraperitoneal (i.p.)) or cyclosporin A (3 mg/kg/day; i.p.).
An injured group not treated with any drug was used as an injured control to establish the amount of intimal thickening in the absence of treatment. The right carotid was used as an uninjured control in all groups.
After the 14 day post-operative period, the rats were sacrificed, the carotids removed. The mean areas of the intima, media and total blood vessel wall were measured by morphometry. The injured artery was also examined using histopathologic assays. Results are presented as an intima percent, expressed as follows: [formula]

Row | Compound | decrease in the mean percentage intimal thickening compared with the untreated injured control group (20 mg/kg/day i.p.) [%] | Intima Percent (±S.E.) (20 mg/kg/day i.p., 3 days before to 13 days after operation) [%] | reduction in intimal thickening (in words) (3 mg/kg/day i.p.) | Intima Percent (±S.E.) (3 mg/kg/day i.p., 14 days) [%]
1 | Cc1oncc1C(=O)Nc1ccc(C(F)(F)F)cc1 [Compound 1, N-(4-trifluoromethylphenyl)-5-methylisoxazole-4-carboxamide] | 83 | 7.88 ± 7.88 | – | –
2 | Cyclosporin A | – | – | failed to produce any meaningful reduction in intimal thickening | 39.39 ± 26.06
